# Source: US20250325711A1, “COVALENT FLUORESCENT PROBES FOR CANNABINOID RECEPTOR 2” (Hoffmann-La Roche Inc., priority 2022, published 2025)
# Target: hCB2R (Homo sapiens (Human), UniProt P34972)
# Assay: TR-FRET hCB2R Binding Assay
# Settings: SNAP-tagged human CB2R HEK293-TR cell membranes, TR-FRET (HTRF) detection, nonspecific binding with 1 μM SR144528; read-out: Kd hCB2R
compound,measurement,value
"COc1cc(C(C)(C)CCCCCCN=[N+]=[N-])cc(OC)c1[C@H]1C=C(CNC(=O)CCCCCCOc2c(F)c(F)c3c(c2F)C2(OC3=O)c3ccc(N4CCC4)cc3[Si](C)(C)c3cc(N4CCC4)ccc32)[C@H]2C[C@@H]1C2(C)C [Example 19, N-(((1S,4S,5S)-4-(4-(8-azido-2-methyloctan-2-yl)-2,6-dimethoxyphenyl)-6,6-dimethylbicyclo[3.1.1]hept-2-en-2-yl)methyl)-7-((3,7-di(azetidin-1-yl)-4′,5′,7′-trifluoro-5,5-dimethyl-3′-oxo-3′H,5H-spiro[dibenzo[b,e]siline-10,1′-isobenzofuran]-6′-yl)oxy)heptanamide]",Kd,2 nM
